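48-hour exposure; five concentrations; linearly interpolated endpoints. At the GI50, growth is halved.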 Calls of active or inactive are those of the source. Cut-off read from the data, not from the text of the source: active = GI50 up to about 1.1 µM and inactive = higher.
What was measured:
Experiment in all cases: NCI-60 cell line screen, 48 h
[1] = test system: SK-MEL-2
[2] = test system: Malme-3M
[3] = test system: A549
[4] = test system: HL-60
[5] = test system: PC-3
[6] = test system: HCT-15
[7] = test system: NCI-H23
[8] = test system: NCI-H522
[9] = test system: CAKI-1
[10] = test system: IGROV-1
[11] = test system: M14
[12] = test system: A498
[13] = test system: SK-MEL-5
[14] = test system: OVCAR-4
[15] = test system: COLO 205
[16] = test system: EKVX
[17] = test system: OVCAR-3
[18] = test system: RPMI-8226
[19] = test system: MOLT-4
[20] = test system: MDA-N
[21] = test system: ACHN
[22] = test system: SK-MEL-28
[23] = test system: TK-10
[24] = test system: U-251
[25] = test system: MDA-MB-435
[26] = test system: BT-549
[27] = test system: Hs-578T
[28] = test system: MDA-MB-231
[29] = test system: HOP-62
[30] = test system: UACC-257
[31] = test system: OVCAR-5
[32] = test system: HCC 2998
[33] = test system: 786-0
[34] = test system: HT-29
[35] = test system: SK-OV-3
[36] = test system: MCF7
[37] = test system: CCRF-CEM
[38] = test system: UACC-62
[39] = test system: SF-539
[40] = test system: RXF 393
[41] = test system: LOX IMVI
[42] = test system: UO-31
[43] = test system: KM12
[44] = test system: SR
[45] = test system: SF-295
[46] = test system: NCI-H460
[47] = test system: NCI-H226
[48] = test system: SF-268
[49] = test system: DU-145
[50] = test system: HCT-116
[51] = test system: OVCAR-8
[52] = test system: SW-620
[53] = test system: SN12C
[54] = test system: K562
[55] = test system: T47D
[56] = test system: SNB-75
[57] = test system: SNB-19
[58] = test system: NCI/ADR-RES

In the case of `C=C1C(=O)OC2C3C(=C)[C@@H](OC(C)=O)CC3C(C)=CC(OC(=O)C(C)(O)C(C)OC(C)=O)[C@@H]12` (some centres not stated), the GI50 [1] is reported as 4.98 µM (inactive), the GI50 [2] is reported as 6.7 µM (inactive) and the GI50 [3] is reported as 26.2 µM (inactive). The GI50 [4] was 2.55 µM (inactive), the GI50 [5] was 16.3 µM (inactive) and the GI50 [6] was 10.4 µM. The GI50 [7] was 13.2 µM (inactive), the GI50 [8] was 1.52 µM (inactive) and the GI50 [9] was 2.9 µM (inactive). The GI50 [10] was 7.36 µM (inactive), the GI50 [11] was 7.6 µM (inactive) and the GI50 [12] was 16.7 µM (inactive). For the same compound, the GI50 [13] was 7.4 µM (inactive), the GI50 [14] was 7.28 µM (inactive) and the GI50 [15] was 4.15 µM (inactive). The GI50 [16] was 16.1 µM (inactive), the GI50 [17] was 9.82 µM (inactive) and the GI50 [18] was 7.18 µM (inactive). For the same compound, the GI50 [19] was 3.04 µM (inactive), the GI50 [20] was 5.82 µM (inactive) and the GI50 [21] was 10.4 µM (inactive). The GI50 [22] was 14 µM (inactive), the GI50 [23] was 3.99 µM (inactive) and the GI50 [24] was 16.8 µM (inactive). For the same compound, the GI50 [25] was 8.93 µM (inactive), the GI50 [26] was 13.6 µM (inactive) and the GI50 [27] was 12.8 µM (inactive). The GI50 [28] was 19.8 µM (inactive), the GI50 [29] was 21.3 µM (inactive) and the GI50 [30] was 9.46 µM (inactive). The GI50 [31] was 11.9 µM (inactive), the GI50 [32] was 16.1 µM (inactive) and the GI50 [33] was 11.5 µM (inactive). The GI50 [34] was 5.09 µM (inactive), the GI50 [35] was 80.9 µM (inactive) and the GI50 [36] was 10.7 µM (inactive). The GI50 [37] was 2.84 µM (inactive), the GI50 [38] was 10.6 µM (inactive) and the GI50 [39] was 13.8 µM (inactive). The GI50 [40] was 3.61 µM (inactive), the GI50 [41] was 4.89 µM (inactive) and the GI50 [42] was 12.4 µM (inactive). The GI50 [43] was 15.2 µM (inactive), the GI50 [44] was 7.41 µM (inactive) and the GI50 [45] was 48.2 µM (inactive). The GI50 [46] was 17.6 µM (inactive), the GI50 [47] was 21.6 µM (inactive) and the GI50 [48] was 19.5 µM (inactive). The GI50 [49] was 16.2 µM (inactive), the GI50 [50] was 5.02 µM (inactive) and the GI50 [51] was 20.1 µM (inactive). The GI50 [52] was 2.88 µM (inactive), the GI50 [53] was 14.7 µM (inactive) and the GI50 [54] was 3.35 µM (inactive). For the same compound, the GI50 [55] was 19.5 µM (inactive), the GI50 [56] was 13.7 µM (inactive) and the GI50 [57] was 85.5 µM (inactive).

For `Cc1cc2c(nn1)CCc1c-2no[n+]1[O-]`, the GI50 [1] was 50.1 µM (inactive), the GI50 [2] was > 100 µM (inactive) and the GI50 [3] was > 100 µM (inactive). For the same compound, the GI50 [5] was > 100 µM (inactive), the GI50 [6] was greater than 100 µM and the GI50 [7] was > 100 µM (inactive). The GI50 [8] was > 100 µM (inactive), the GI50 [9] was > 100 µM (inactive) and the GI50 [10] was > 100 µM (inactive). The GI50 [11] was > 100 µM (inactive), the GI50 [13] was > 100 µM (inactive) and the GI50 [14] was > 100 µM (inactive). For the same compound, the GI50 [15] was > 100 µM (inactive), the GI50 [16] was > 100 µM (inactive) and the GI50 [17] was > 100 µM (inactive). For the same compound, the GI50 [18] was > 100 µM (inactive), the GI50 [19] was > 100 µM (inactive) and the GI50 [20] was > 100 µM (inactive). For the same compound, the GI50 [21] was > 100 µM (inactive), the GI50 [22] was > 100 µM (inactive) and the GI50 [23] was > 100 µM (inactive). The GI50 [24] was > 100 µM (inactive), the GI50 [25] was > 100 µM (inactive) and the GI50 [26] was > 100 µM (inactive). The GI50 [27] was > 100 µM (inactive), the GI50 [28] was > 100 µM (inactive) and the GI50 [29] was > 100 µM (inactive). For the same compound, the GI50 [30] was > 100 µM (inactive), the GI50 [31] was > 100 µM (inactive) and the GI50 [32] was > 100 µM (inactive). The GI50 [33] was > 100 µM (inactive), the GI50 [34] was > 100 µM (inactive) and the GI50 [35] was > 100 µM (inactive). The GI50 [36] was > 100 µM (inactive), the GI50 [37] was > 100 µM (inactive) and the GI50 [38] was > 100 µM (inactive). The GI50 [39] was > 100 µM (inactive), the GI50 [40] was 22.1 µM (inactive) and the GI50 [41] was > 100 µM (inactive). For the same compound, the GI50 [42] was > 100 µM (inactive), the GI50 [43] was > 100 µM (inactive) and the GI50 [44] was > 100 µM (inactive). The GI50 [45] was > 100 µM (inactive), the GI50 [46] was > 100 µM (inactive) and the GI50 [47] was > 100 µM (inactive). The GI50 [48] was > 100 µM (inactive), the GI50 [58] was > 100 µM (inactive) and the GI50 [50] was > 100 µM (inactive). For the same compound, the GI50 [51] was > 100 µM (inactive), the GI50 [52] was > 100 µM (inactive) and the GI50 [53] was > 100 µM (inactive). For the same compound, the GI50 [54] was > 100 µM (inactive), the GI50 [55] was > 100 µM (inactive) and the GI50 [56] was > 100 µM (inactive). The GI50 [57] was > 100 µM (inactive).

Reference: ChEMBL document CHEMBL1201862, “PubChem BioAssay data set” (2004)
